According to patent US20250170093A1, “ENDOPLASMIC RETICULUM PROTEIN HYOU1-BINDING COMPOUND FOR INHIBITING ENDOPLASMIC RETICULUM-MITOCHONDRIAL INTERACTION AND USES THEREOF” (UIF (University Industry Foundation), Yonsei Univeristy, priority 2023, published 2025):

Tests used:
p62, LC3B-II and α-SMA = experiment: Western blot of autophagy and smooth muscle cell proliferation markers in PAH cell model; type: cell-based, human; conditions: TGF-β-stimulated PASMCs, vs control group
Method: Human pulmonary artery smooth muscle cells (PASMCs; 4-8 passages) were cultured in an SmGM2 basal medium (Lonza, CC-3181) containing 5% FBS, supplements (Lonza, CC-4149) and 1% antibiotics.
The cells were cultured in a chamber-type cell culture slide. When they reached 70% confluence, the medium was replaced with a medium containing 0.5% FBS and the cells were incubated for 4 hours to inhibit cell proliferation. The cells were then treated with DMSO and CTS (5 μM) while simultaneously stimulating with TGF-β (5 ng/ml) for 24 hours. The level of p62, LC3 and α-SMA was confirmed by western blot.

[1] = test system: ApoE−/− mice fed a high-cholesterol diet; experiment: Atherosclerosis-induced animal model (ApoE-/- mice fed a high-cholesterol diet); type: in vivo, mouse; conditions: 20 mg/kg intraperitoneally every 2 days for 8 weeks
Method: Mouse experiments were performed in accordance with the ethical guidelines approved by the Institutional Animal Care and Use Committee of Yonsei University (IACUC-A-202208-1519-01). ApoE−/− mice were provided by Dr. Goo Taeg Oh (Ewha Womans University, Korea) and were housed in a pathogen-free system with a 12-hour light-dark cycle with free access to water and food. The mice were fed a high-cholesterol diet from 6 weeks after birth until the end of the experiment. At the end of the experiment, the mice were anesthetized with Avertin (2,2,2-tribromoethanol) and perfused with PBS through the left ventricle.
The outer membrane fat of the aorta isolated from the sacrificed animals was removed, dissected longitudinally, and fixed on a white silicone plate. After overnight fixation with 4% PFA, aortas were stained overnight with Oil Red O and washed with PBS. The heart and liver were then harvested and fixed overnight in 4% PFA and then placed in a 30% sucrose solution. After preparing tissues and preserving through cryopreservation (OCT) or paraffin embedding, sections were prepared for histologic analysis. For analysis of atherosclerotic lesions, the bottom of the heart, including the proximal aorta, was embedded in OCT medium, stained using the Oil Red O stain, and then quantified using the Image J software. […]

HYOU1 = target: T1, HYOU1 (Homo sapiens, UniProt Q9Y4L1); experiment: DARTS-western analysis in HUVEC lysate; type: binding; conditions: dose-dependent, read-out: EC50 of resistance to degradation by Pronase
T1 construct: endogenous in cells; host or cells: HUVEC
T1 sequence (Q9Y4L1 33-999): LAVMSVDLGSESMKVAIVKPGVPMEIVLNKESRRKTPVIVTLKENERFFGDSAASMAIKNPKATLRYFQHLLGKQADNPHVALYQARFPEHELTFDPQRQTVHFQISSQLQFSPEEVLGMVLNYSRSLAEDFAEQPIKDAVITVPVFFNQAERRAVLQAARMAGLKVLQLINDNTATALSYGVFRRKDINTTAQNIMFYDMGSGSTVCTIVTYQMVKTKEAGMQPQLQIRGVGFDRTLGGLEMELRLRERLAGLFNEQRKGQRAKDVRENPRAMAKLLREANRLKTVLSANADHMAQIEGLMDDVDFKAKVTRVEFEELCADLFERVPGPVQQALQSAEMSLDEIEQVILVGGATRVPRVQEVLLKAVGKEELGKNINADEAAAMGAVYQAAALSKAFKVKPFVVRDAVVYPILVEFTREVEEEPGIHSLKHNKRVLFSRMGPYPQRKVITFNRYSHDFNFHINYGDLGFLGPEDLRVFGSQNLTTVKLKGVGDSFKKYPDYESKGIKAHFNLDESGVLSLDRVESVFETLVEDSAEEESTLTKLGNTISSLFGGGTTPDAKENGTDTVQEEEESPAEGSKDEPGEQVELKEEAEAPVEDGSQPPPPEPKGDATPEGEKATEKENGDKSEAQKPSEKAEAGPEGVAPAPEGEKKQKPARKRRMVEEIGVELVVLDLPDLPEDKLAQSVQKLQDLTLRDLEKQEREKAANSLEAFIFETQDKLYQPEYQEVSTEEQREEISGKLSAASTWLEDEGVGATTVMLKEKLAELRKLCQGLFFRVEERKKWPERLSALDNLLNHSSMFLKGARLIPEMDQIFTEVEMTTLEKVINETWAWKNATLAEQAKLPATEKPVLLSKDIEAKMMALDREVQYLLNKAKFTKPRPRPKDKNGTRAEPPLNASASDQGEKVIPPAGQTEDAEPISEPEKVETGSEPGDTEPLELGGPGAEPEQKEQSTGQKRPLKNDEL
Method: HepG2 or HUVECs (1×10^7 cells) were lysed by homogenization in PBS buffer containing a protease/phosphatase inhibitor cocktail (½ tablet, 25 mL; Pierce), and the concentration of total proteins was determined by BCA assay. All steps were performed on ice to avoid premature protein degradation. The cell lysate (final protein concentration: 1 mg/mL, 100 μL) was aliquoted into a 1.5-mL tube and incubated with 0.01 to 10 μM CTS (in 1 μL DMSO) for 3 hours at 4° C. with gentle stirring. Pronase (non-specific protease) was then added (final concentration: 1 μg/mL) and reaction was performed for 10 minutes. After adding a 6×SDS buffer, the Pronase reaction was stopped by heating for 7 minutes.
DARTS-western analysis was used to validate HYOU1 as a target protein of CTS in the lysate of HUVECs. […] In addition, […] to degradation by Pronase (protease) in a dose-dependent manner, with an EC50 value calculated to be about 1 μM (FIG. 5B).

HUVECs [2] = experiment: Transmission electron microscopy of ER and mitochondria in HUVECs; type: cell-based, human; conditions: CTS 5 μM; control group 61%
Text: First, HUVECs were imaged by transmission electron microscopy (TEM) to visualize the ER and mitochondria, and the ER-mitochondrial distance was observed. […] Increased contact between the ER and mitochondria can lead to cellular stress and dysfunction. CTS can help restore cellular homeostasis and prevent adverse effects associated with increased ER-mitochondrial interactions.

HUVECs [3] = experiment: Mitochondrial calcium assay (Rhod-2) in HUVECs; type: cell-based, human; conditions: pretreated with xestospongin C, then treated with oxLDL
Method: To measure calcium content in mitochondria or cytosol, HUVECs were cultured overnight at a density of 1.5×10^4 cells/well in a chamber slide (8-well) and incubated with Rhod-2/AM (2 μM) (Invitrogen, R1244) or Fluo-4/AM (1 μM) (Invitrogen, F14201), respectively, for 30 minutes at room temperature. The cells were then incubated in a calcium-free Krebs-Ringer-HEPES buffer (pH 7.4) additionally for 30 minutes for de-esterification of the dye. Images were captured in real time using an LSM980 confocal microscope (Zeiss, Oberkochen, Germany).
In addition, it was investigated whether intracellular calcium was released from the ER and imported into the mitochondria in response to oxLDL. Specifically, it was confirmed that, when the HUVECs were treated with oxLDL along with the Rhod-2 dye, which is a marker of mitochondrial calcium, mitochondrial calcium level was increased. In contrast, when HUVECs were pretreated with xestospongin C, which is an IP3R antagonist, and then treated with oxLDL, there was no increase in the mitochondrial calcium level (FIG. 1D). This means that the oxLDL-induced increase in mitochondrial calcium is derived from the endoplasmic reticulum (ER).
Furthermore, in order to investigate whether change in the physical coupling between the ER and mitochondria affects communications between cell organelles, Ca^2+ transport from the ER to mitochondria was examined. […]

Row | Compound | decrease of expression of autophagy and smooth muscle cell proliferation markers (p62, LC3B-II and α-SMA) | body weight [1] | EC50 (HYOU1) [nM] | number of dots closer than 40 nm (ER-mitochondrial distance) (HUVECs [2]) [%] | mitochondrial calcium level (Rhod-2) (HUVECs [3])
1 | C[C@H]1COC2=C1C(=O)C(=O)c1c2ccc2c1CCCC2(C)C [CTS, Cryptotanshinone] | approximately 40% | did not affect | ~1000 | 37 | 
2 | C1CCC[C@H]2CCCN3CC[C@@H](CCCCCC[C@@H]4CCCN5CC[C@@H](CC1)O[C@@H]45)O[C@@H]23 [xestospongin C] |  |  |  |  | no increase
